Series [1] in a line: FDO stability under the diet making conditions. The class given is physicochemical. Particulars: mixed with ground Purina Mouse Chow, 70° C. for 3 hours under vacuum; ethanol extract, HPLC and UV absorption. The procedure: (§1) Three key parameters were measured prior to starting the study: (a) FDO stability under the diet making conditions (70° C. for 3 hours under vacuum), (b) FDO stability to stomach pH (approximately pH 1), and (c) FDO absorbed intact into the blood stream of the mouse. The following were the outcomes: • (a) The FDO was mixed with ground Purina Mouse Chow® and heated to 70° C. for 3 hours under vacuum; the FDO was then extracted from the chow with ethanol and assayed by HPLC and by UV absorption spectrum. […]

The nature of series [2]: FDO stability to stomach pH. The class given is physicochemical. The following applies: 2:1:1 ethanol:propylene glycol:water at pH 1 (HCl); HPLC and UV absorption. The procedure:
as §1

A short description of series [3]: FDO absorbed intact into the blood stream of the mouse. The class given is in vivo. Particulars: Skh mice fed chow containing 0.01% 14C-FDO for 14 days; blood analyzed by HPLC. The procedure:
as §1

A short description of series [4]: FDO content of FDO-containing diets during storage over the study. The following applies: diets stored at 4° C., sampled at 3 month intervals over approximately two years; UV absorption. Format: physicochemical. The procedure: (§2) The FDO-containing and control diets were prepared by Teklad (Madison, Wis.) by addition of FDO to standard Purina Mouse Chow®. Diets were stored at 4° C. in sealed containers until used. The levels of FDO in the diets were 0%, 0.01%, and 0.1%.
At 3 month intervals throughout the study, samples of the FDO-containing Purina Mouse Chow® were ground and extracted with ethanol; the ethanol was then analyzed for FDO content by UV absorption (obtaining the absorption spectrum versus the FDO standard and then determining level of FDO at the peak absorption).

Series [5] has as its system female albino Skh:HR-1 hairless mice. The series is described as follows: Effect of dietary FDO on mouse average life span (survival). Particulars: for Mean survival: control 553 days. Format: in vivo. The procedure:
Forty eight (48) female albino Skh:HR-1 hairless mice were obtained from Charles River Laboratories (Portage, Mich.). At the start of the study, the mice were approximately 20 weeks old. The mice were housed four to a standard plastic cage and given feed and water ad libitum. Sixteen (16) mice were placed on each of the three test diets described below.
The 2-Furildioxime (FDO) was obtained from Aldrich Chemical Co. (Milwaukee, Wis.).
as §2
Throughout the study, mouse weights, food consumption, and date of death were recorded.

[6] abbreviates: 0.01% and 0.1% FDO diets vs. 0% control diet.

The source of these data is patent US20050020672A1, “Methods of extending mammalian life span via iron chelating compounds that reduce free radical damage in mammals” (priority 1994, published 2005).

As for `ON=C(C(=NO)c1ccco1)c1ccco1` [FDO, 2-furildioxime], the “loss of FDO under diet making conditions” value in series [1] is listed as “no detectable loss”. The “loss of FDO at stomach pH” value in series [2] was “no detectable loss”. Besides, in series [3], the “FDO in blood after dietary administration” value is recorded as “Intact FDO was detected”. Further, the “loss of FDO from the diets” value in series [4] was “no detectable loss”. Also, the “% Increase in Survival Time” value is reported as 14% in series [5] (0.01% FDO diet vs. control diet, p = 0.05) and 20% in series [5] (0.1% FDO diet vs. control diet, p = 0.02). In addition, the “Mean survival” value in series [5] (0.01% FDO diet, p = 0.05 vs. control) is reported as 632 days; in series [5] (0.1% FDO diet, p = 0.02 vs. control) it was 664 days. The mouse body weights entry in series [5] (setting [6]) was “not different”. The mouse food consumption result in series [5] (setting [6]) is “not different”. Besides, the “death from all causes” value in series [5] (FDO-fed mice) is “delayed to a later date”. Moreover, the “differences in the causes of death among the diet groups” value in series [5] (autopsy, 0.01% and 0.1% FDO diets vs. control) is on record as “not any differences”. The “life span relative to the control diet” value in series [5] (both FDO diets (0.01% and 0.1%), statistical analysis) is “significantly increased”. Besides, the “appearance or behavioral differences” value in series [5] (daily observation, 0.01% and 0.1% FDO diets vs. control) is “No differences”.
